From patent US9200003B2, “Crystalline forms of 1-(5′-(5-(3,5-dichloro-4-fluorophenyl)-5-(trifluoro-methyl)-4,5-dihydroisoxazol-3-yl)-3′H-spiro[azetidine-3,1′-isobenzofuran]-1-yl)-2-(methylsulfonyl) ethanone” (Zoetis Services LLC, priority 2012, dated 2015) come the findings set out here.

In brackets after ≈: the same amount, converted by molar mass. Read-outs that look alike come from different tables or passages of the source.

The nature of this series: Solubility of the solid-state forms in organic solvents. The following applies: for solubility: organic solvent or mixture. The format is physicochemical.

Take `CS(=O)(=O)CC(=O)N1CC2(C1)OCc1cc(C3=NOC(c4cc(Cl)c(F)c(Cl)c4)(C(F)(F)F)C3)ccc12` (racemic) [crystal racemate, (S/R)-1-(5′-(5-(3,5-dichloro-4-fluorophenyl)-5-(trifluoromethyl)-4,5-dihydroisoxazol-3-yl)-3′H-spiro[azetidine-3,1′-isobenzofuran]-1-yl)-2-(methylsulfonyl)ethanone]: where the note is “acetone, room temperature (approximately 22° C.)”, the solubility in acetone entry is listed as “less than 10 mg/mL”. Moreover, for the setting “methyl t-butyl ether”, the “solubility in methyl t-butyl ether” value was below 1 mg/mL.

In general, solubility refers to the concentration that dissolves in the medium under given conditions. In the case of `CS(=O)(=O)CC(=O)N1CC2(C1)OCc1cc(C3=NO[C@@](c4cc(Cl)c(F)c(Cl)c4)(C(F)(F)F)C3)ccc12` [Form A, (S)-1-(5′-(5-(3,5-dichloro-4-fluorophenyl)-5-(trifluoromethyl)-4,5-dihydroisoxazol-3-yl)-3′H-spiro[azetidine-3,1′-isobenzofuran]-1-yl)-2-(methylsulfonyl)ethanone], the solubility runs as follows: (methyl t-butyl ether, read-out: solubility in methyl t-butyl ether) 11 mg/mL (≈ 18.9 mM); (acetone, room temperature (approximately 22° C.), read-out: solubility in acetone) above 300 mg/mL.
